In patent US20150299143A1, “SUBSTITUTED TRIAZOLE AND IMIDAZOLE COMPOUNDS” (HOFFMANN-LA ROCHE INC., priority 2012, published 2015):

Tests used:
[1] = molecular target: T1, β 5i (chymotrypsin-like activity) (Homo sapiens, UniProt P20618+P28062); assay: Cell-Based Proteasome subunit activity/selectivity assay, β5i, substrate (ANW)2Rh110; conditions: Ramos cells; substrate (ANW)2Rh110 (β5i); highest concentration tested 20 μM; read-out: Ic50:ramos:ac-(anw)2-r110
T1 construct: protease activity associated with the proteasome complex in cultured cells; endogenous in cells; host or cells: Ramos cells
Excerpt: (§1) Cell-Based Proteasome Activity/Selectivity Assay
(§2) The Cell-Based Proteasome subunit activity/selectivity assay was a panel of 5 fluorogenic assays that independently measured the activity of β5c or β 5i (chymotrypsin-like activity), β 2c/2i (trypsin-like), and β 1c or β 1i (caspase-like) protease activity associated with the proteasome complex in cultured cells. Specifically, the following substrates were used for respective subunit activities: β 1i (PAL)2Rh110, β 1c: (LLE)2 Rh110, β 2c/2i: (KQL)2Rh110, β 5c: (WLA)2Rh110, β 5i: (ANW)2Rh110. The following procedure was followed:
(§3) Added 0.5 μl of 100× 4-fold serial diluted test compounds or DMSO to each well. Highest concentration of compound tested was 20 μM, thus compound serial dilution started from […]. Incubated for 30 minutes at 37° C. Then equilibrated at room temperature for 15 minutes. […] Shaked for one minute @ 700 rpm. Incubated for 120 min at room temperature. Then read the plates with an Envision multilabel plate reader (PerkinElmer) with 500 nm excitation/519 nm emission.

β 1c (caspase-like) = molecular target: T2, β 1c (caspase-like) (Homo sapiens, UniProt P28072+Q99436); assay: Cell-Based Proteasome subunit activity/selectivity assay, β1c, substrate (LLE)2Rh110; conditions: Ramos cells; substrate (LLE)2Rh110 (β1c); highest concentration tested 20 μM; read-out: Ic50:ramos:rh110-(lle)2
T2 construct: protease activity associated with the proteasome complex in cultured cells; endogenous in cells; host or cells: Ramos cells
Excerpt: as §1, §2, §3

β 1i (caspase-like) = molecular target: T3, β 1i (caspase-like) (Homo sapiens, UniProt P28065+P40306); assay: Cell-Based Proteasome subunit activity/selectivity assay, β1i, substrate (PAL)2Rh110; conditions: Ramos cells; substrate (PAL)2Rh110 (β1i); highest concentration tested 20 μM; read-out: Ic50:ramos:rh110-(pal)2
T3 construct: protease activity associated with the proteasome complex in cultured cells; endogenous in cells; host or cells: Ramos cells
Excerpt: as §1, §2, §3

β 2c/2i (trypsin-like) = assay: Cell-Based Proteasome subunit activity/selectivity assay, β2c/2i, substrate (KQL)2Rh110; conditions: Ramos cells; substrate (KQL)2Rh110 (β2c/2i); highest concentration tested 20 μM
Excerpt: as §1, §2, §3

[2] = molecular target: T4, β5c (chymotrypsin-like activity) (Homo sapiens, UniProt P20618+P28074); assay: Cell-Based Proteasome subunit activity/selectivity assay, β5c, substrate (WLA)2Rh110; conditions: Ramos cells; substrate (WLA)2Rh110 (β5c); highest concentration tested 20 μM; read-out: Ic50:ramos:rh110-(wla)2
T4 construct: protease activity associated with the proteasome complex in cultured cells; endogenous in cells; host or cells: Ramos cells
Excerpt: as §1, §2, §3

SMILES	IC50 [1]	IC50 (β 1c (caspase-like))	IC50 (β 1i (caspase-like))	IC50 (β 2c/2i (trypsin-like))	IC50 [2]
CCc1ccc(C(C#N)NC(=O)c2cn(CCNC(=O)c3ccccc3COC)nn2)cc1 (stereo not drawn) [Example 33, 1-[2-(2-Methoxymethyl-benzoylamino)-ethyl]-1H-[1,2,3]triazole-4-carboxylic acid [cyano-(4-ethyl-phenyl)-methyl]-amide]	1.8 µM	≥ 20 µM	≥ 20 µM	≥ 20 µM	≥ 20 µM
CCc1ccc(C(C#N)NC(=O)c2cn(CCN3Cc4cc(OC)ccc4C3=O)nn2)cc1 (stereo not drawn) [Example 47, 1-[2-(5-Methoxy-1-oxo-1,3-dihydro-isoindol-2-yl)-ethyl]-1H-[1,2,3]triazole-4-carboxylic acid [cyano-(4-ethyl-phenyl)-methyl]-amide]	1.49 µM	≥ 20 µM	≥ 20 µM	≥ 20 µM	7.67 µM
CCc1ccc(C(C#N)NC(=O)c2cn(CCNC(=O)c3ccc(C(F)(F)F)cc3F)cn2)cc1 (stereo not drawn) [Example 94, 1-[2-(2-Fluoro-4-trifluoromethyl-benzoylamino)-ethyl]-1H-imidazole-4-carboxylic acid [cyano-(4-ethyl-phenyl)-methyl]-amide]	1.01 µM	≥ 20 µM	≥ 20 µM	≥ 20 µM	≥ 20 µM
CCc1ccc(C(C#N)NC(=O)c2nc(CCNC(=O)c3ccc(C(F)(F)F)cc3OC)n[nH]2)cc1 (stereo not drawn) [Example 90, 5-[2-(2-Methoxy-4-trifluoromethyl-benzoylamino)-ethyl]-2H-[1,2,4]triazole-3-carboxylic acid [cyano-(4-ethyl-phenyl)-methyl]-amide]	0.014 µM	≥ 20 µM	≥ 20 µM	≥ 20 µM	≥ 20 µM
CCc1ccc(C(C#N)NC(=O)c2cn(CCNC(=O)c3ccc(OC(F)(F)F)cc3OC)nn2)cc1 (stereo not drawn) [Example 11, 1-[2-(2-Methoxy-4-trifluoromethoxy-benzoylamino)-ethyl]-1H-[1,2,3]triazole-4-carboxylic acid [cyano-(4-ethyl-phenyl)-methyl]-amide]	0.106 µM	≥ 20 µM	≥ 20 µM	≥ 20 µM	9.98 µM
CC1=C(C(=O)NCCn2cc(C(=O)NC(C#N)c3ccc(C(F)(F)F)cc3)nn2)Cc2ccccc21 (stereo not drawn) [Example 70, 1-{2-[(3-Methyl-1H-indene-2-carbonyl)-amino]-ethyl}-1H-[1,2,3]triazole-4-carboxylic acid [cyano-(4-trifluoromethyl-phenyl)-methyl]-amide]	0.445 µM	≥ 20 µM	≥ 20 µM	≥ 20 µM	10.8 µM
COc1cc(C(F)(F)F)ccc1C(=O)NCCn1cnc(C(=O)NC(C#N)c2ccc(Br)cc2)c1 (stereo not drawn) [Example 93, 1-[2-(2-Methoxy-4-trifluoromethyl-benzoylamino)-ethyl]-1H-imidazole-4-carboxylic acid [(4-bromo-phenyl)-cyano-methyl]-amide]	0.497 µM	≥ 20 µM	≥ 20 µM	≥ 20 µM	≥ 20 µM
O=C(CCNC(=O)c1cn(CCNC(=O)c2ccc(C(F)(F)F)cc2F)nn1)c1ccccc1 [Example 78]	0.176 µM	≥ 20 µM	≥ 20 µM	≥ 20 µM	14.3 µM
CCc1ccc(C(C#N)NC(=O)c2cn(CCCNC(=O)c3ccc(C(F)(F)F)cc3OC)nn2)cc1 (stereo not drawn) [Example 85, 1-[3-(2-Methoxy-4-trifluoromethyl-benzoylamino)-propyl]-1H-[1,2,3]triazole-4-carboxylic acid [cyano-(4-ethyl-phenyl)-methyl]-amide]	0.239 µM	≥ 20 µM	≥ 20 µM	≥ 20 µM	≥ 20 µM
CCc1ccc(C(C#N)NC(=O)c2cn(CCNC(=O)c3cc(OC)ccc3F)nn2)cc1 (stereo not drawn) [Example 32, 1-[2-(2-Fluoro-5-methoxy-benzoylamino)-ethyl]-1H-[1,2,3]triazole-4-carboxylic acid [cyano-(4-ethyl-phenyl)-methyl]-amide]	0.682 µM	≥ 20 µM	≥ 20 µM	≥ 20 µM	≥ 20 µM
CCc1ccc(C(C#N)NC(=O)c2cn(CCN3Cc4ccccc4C3=O)nn2)cc1 (stereo not drawn) [Example 46, 1-[2-(1-Oxo-1,3-dihydro-isoindol-2-yl)-ethyl]-1H-[1,2,3]triazole-4-carboxylic acid [cyano-(4-ethyl-phenyl)-methyl]-amide]	5.94 µM	≥ 20 µM	≥ 20 µM	≥ 20 µM	16.1 µM
CCc1ccc(C(C#N)NC(=O)c2cn(CCNC(=O)c3cccc(-c4ccccc4)n3)nn2)cc1 (stereo not drawn) [Example 15, 6-Phenyl-pyridine-2-carboxylic acid [2-(4-{[cyano-(4-ethyl-phenyl)-methyl]-carbamoyl}-[1,2,3]triazol-1-yl)-ethyl]-amide]	1.5 µM	19.9 µM	≥ 20 µM	≥ 20 µM	7.76 µM

Continued, values first:

IC50 [1]	IC50 (β 1c (caspase-like))	IC50 (β 1i (caspase-like))	IC50 (β 2c/2i (trypsin-like))	IC50 [2]	SMILES
2.49 µM	≥ 20 µM	≥ 20 µM	≥ 20 µM	≥ 20 µM	CCc1ccc(C(C#N)NC(=O)c2cn(CCNC(=O)c3ccc(OC)c(OC)c3OC)nn2)nc1 (stereo not drawn) [Example 63, 1-[2-(2,3,4-Trimethoxy-benzoylamino)-ethyl]-1H-[1,2,3]triazole-4-carboxylic acid [cyano-(5-ethyl-pyridin-2-yl)-methyl]-amide]
0.101 µM	≥ 20 µM	≥ 20 µM	≥ 20 µM	≥ 20 µM	COc1ccc(C(=O)NCCn2cc(C(=O)NC(C#N)c3ccc(Br)cc3)nn2)c(OC)c1OC (stereo not drawn) [Example 54, 1-[2-(2,3,4-Trimethoxy-benzoylamino)-ethyl]-1H-[1,2,3]triazole-4-carboxylic acid [(4-bromo-phenyl)-cyano-methyl]-amide]
0.028 µM	≥ 20 µM	≥ 20 µM	≥ 20 µM	16.2 µM	CCc1ccc(C(C#N)NC(=O)c2cn(CCNC(=O)c3ccc(C(F)(F)F)cc3OC)nn2)cc1 (stereo not drawn) [Example 23, 1-[2-(2-Methoxy-4-trifluoromethyl-benzoylamino)-ethyl]-1H-[1,2,3]triazole-4-carboxylic acid [cyano-(4-ethyl-phenyl)-methyl]-amide]
0.08 µM	≥ 20 µM	≥ 20 µM	≥ 20 µM	≥ 20 µM	CCc1ccc(C(C#N)NC(=O)c2cn(CCNC(=O)c3ccc(OC)c(OC)c3OC)nn2)cc1 (stereo not drawn) [Example 1, 1-[2-(2,3,4-Trimethoxy-benzoylamino)-ethyl]-1H-[1,2,3]triazole-4-carboxylic acid [cyano-(4-ethyl-phenyl)-methyl]-amide]
0.058 µM	≥ 20 µM	≥ 20 µM	≥ 20 µM	≥ 20 µM	CCc1ccc(C(C#N)NC(=O)c2cn(CCNC(=O)c3ccc(OC)c(OC)c3OC)nn2)cc1 (single isomer, unassigned) [Example 50]
2.9 µM	≥ 20 µM	≥ 20 µM	≥ 20 µM	≥ 20 µM	COc1ccc(C(=O)NCCn2cc(C(=O)NCc3ccc(C)cc3)nn2)c(OC)c1OC [Example 3, 1-[2-(2,3,4-Trimethoxy-benzoylamino)-ethyl]-1H-[1,2,3]triazole-4-carboxylic acid 4-methyl-benzylamide]
6.49 µM	≥ 20 µM	≥ 20 µM	≥ 20 µM	≥ 20 µM	COc1ccc(C(=O)NCCn2cc(C(=O)NCc3ccc(Cl)cc3)nn2)c(OC)c1OC [Example 5, 1-[2-(2,3,4-Trimethoxy-benzoylamino)-ethyl]-1H-[1,2,3]triazole-4-carboxylic acid 4-chloro-benzylamide]
2.69 µM	≥ 20 µM	≥ 20 µM	≥ 20 µM	≥ 20 µM	COc1cccc(C(C#N)NC(=O)c2cn(CCNC(=O)c3ccc(OC)c(OC)c3OC)nn2)c1 (stereo not drawn) [Example 52, 1-[2-(2,3,4-Trimethoxy-benzoylamino)-ethyl]-1H-[1,2,3]triazole-4-carboxylic acid [cyano-(3-methoxy-phenyl)-methyl]-amide]
0.919 µM	≥ 20 µM	≥ 20 µM	≥ 20 µM	≥ 20 µM	COc1ccc(C(=O)NCCn2cc(C(=O)NCc3ccc(SC)cc3)nn2)c(OC)c1OC [Example 6, 1-[2-(2,3,4-Trimethoxy-benzoylamino)-ethyl]-1H-[1,2,3]triazole-4-carboxylic acid 4-methylsulfanyl-benzylamide]
